Laboratory results: patent publication US12583820B2, “Broad spectrum antivirals against coronavirus” (priority 2020, dated 2026)
Like-named read-outs stand apart in the source and are kept apart here.

Columns and labels:
[1] = test system: Huh-7, CRFK or CCL1 cells; assay: Nonspecific cytotoxic effects (CC50), CytoTox 96 kit; settings: Huh-7, CRFK, or CCL1 cells, Table 7
[2] = biological target: 3CLpro of MERS-CoV (Middle East respiratory syndrome-related coronavirus, UniProt K9N7C7); assay: biochemical; format: biochemical
[3] = biological target: 3CLpro of SARS-CoV (Severe acute respiratory syndrome coronavirus, UniProt P0C6X7); format: biochemical; settings: read-out: IC50 in enzyme assay (μM) SARS-CoV
[4] = test system: MHV-1; assay: microbe, parasite or virus in culture; format: cell-based, mouse hepatitis virus (MHV); settings: Murine coronavirus, read-out: EC50 in cell culture (μM) MHV
[5] = test system: FIPV; assay: microbe, parasite or virus in culture; format: cell-based; settings: Alphacoronavirus 1, CRFK, read-out: EC50 in cell culture (μM) FIPV
[6] = Nonspecific cytotoxic effects (CC50), CytoTox 96 kit; settings: Huh-7, CRFK or CCL1 cells (confluent, 96-well plates)
[7] = biological target: NV 3CLpro (Norovirus, UniProt Q83883); assay: biochemical; format: biochemical
[8] = test system: NV in the replicon harboring cells (HG23 cells); assay: microbe, parasite or virus in culture; format: cell-based, norovirus (NV)
[9] = test system: HG23 cells
[10] = test system: MERS-CoV; assay: microbe, parasite or virus in culture; format: cell-based
[11] = in vitro; settings: human
[12] = biological target: T1, 3CLpro of SARS-CoV-2 (Severe acute respiratory syndrome coronavirus 2, UniProt P0DTD1); assay: biochemical; format: biochemical
T1 construct: The codon-optimized cDNA of full length of 3CLpro of SARS-CoV-2; 6xHis (N); made in house; pET-28a(+) vector (points to E. coli, my inference)

[13] = test system: SARS-CoV-2; assay: microbe, parasite or virus in culture; format: cell-based; settings: read-out: SARS-CoV-2 EC50 (μM) Cell culture
[14] = read-out: IC50 in enzyme assay (μM) MERS-CoV
[15] = read-out: MERS-CoV IC50(μM) Enzyme
[16] = Middle East respiratory syndrome-related coronavirus, Huh-7, read-out: EC50 in cell culture (μM) MERS-CoV

Sequence of 3CLpro of MERS-CoV (K9N7C7 3248-3553 limits assumed): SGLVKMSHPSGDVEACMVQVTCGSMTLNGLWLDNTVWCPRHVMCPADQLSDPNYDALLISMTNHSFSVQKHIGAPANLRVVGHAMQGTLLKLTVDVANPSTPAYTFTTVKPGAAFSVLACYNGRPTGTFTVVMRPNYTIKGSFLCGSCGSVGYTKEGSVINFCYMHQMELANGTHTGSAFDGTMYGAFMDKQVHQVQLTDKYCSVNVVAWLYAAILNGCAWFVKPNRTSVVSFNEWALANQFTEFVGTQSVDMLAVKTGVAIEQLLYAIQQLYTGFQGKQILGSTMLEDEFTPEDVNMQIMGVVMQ
Sequence of NV 3CLpro (Q83883 1101-1281): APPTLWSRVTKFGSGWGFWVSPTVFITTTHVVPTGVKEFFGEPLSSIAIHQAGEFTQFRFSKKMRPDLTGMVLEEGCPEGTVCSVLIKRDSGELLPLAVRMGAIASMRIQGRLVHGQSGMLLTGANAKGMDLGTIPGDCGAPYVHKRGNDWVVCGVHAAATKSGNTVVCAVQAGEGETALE

Sodium (2S)-2-((S)-2-((((4,4-difluorocyclohexyl) methoxy-d2) carbonyl) amino)-4-methylpentanamido)-1-hydroxy-3-(2-oxopyrrolidin-3-yl) propane-1-sulfonate [Compound 11c]
CC50 [1]: > 100000 nM

CC(C)C[C@H](NC(=O)OCC1CCC(F)(F)CC1)C(=O)N[C@@H](C[C@@H]1CCNC1=O)C(O)S(=O)(=O)O (stereo partly drawn) [Compound 7j (Scheme 1), sodium (2S)-2-((S)-2-((((4,4-difluorocyclohexyl)methoxy)carbonyl)amino)-4-methylpentan-amido)-1-hydroxy-3-((S)-2-oxopyrrolidin-3-yl)propane-1-sulfonate]
IC50 [2, 14]: 0.1 µM | IC50 [3]: 1.1 µM | EC50 [4]: 0.16 µM | EC50 [5]: 0.07 µM | CC50 at 72 h [6]: > 100000 nM

CC(C)(COC(=O)N[C@@H](CC1CCCCC1)C(=O)N[C@H](C=O)C[C@@H]1CCNC1=O)c1cccc(Cl)c1 [Compound 5d (Scheme 2)]
IC50 [2, 15]: 1.9 µM | IC50 ([7]; read-out: IC50 (μM) ± SD): 0.23 ± 0.04 µM | EC50 ([8]; read-out: EC50 (μM) ± SD): 0.07 ± 0.01 µM | CC50 [9]: 13300 ± 1270 nM

CC(C)C[C@H](NC(=O)OC(C)(C)Cc1cccc(Cl)c1)C(=O)N[C@H](C=O)C[C@@H]1CCNC1=O [Compound 5i (Scheme 2)]
IC50 ([2]; read-out: MERS-CoV IC50 (uM) enzyme): 1.1 µM | IC50 ([7]; read-out: IC50 (μM) ± SD): 1.2 ± 0.5 µM | EC50 ([8]; read-out: EC50 (μM) ± SD): 0.9 ± 0.21 µM | CC50 [9]: > 100000 nM

O=C(N[C@@H](CC1CCCCC1)C(=O)N[C@@H](C[C@@H]1CCNC1=O)C(O)S(=O)(=O)O)OC/C=C/c1cccc(Cl)c1 (stereo partly shown) [Compound 6s]
IC50 ([7]; read-out: IC50 (μM) ± SD): 0.16 ± 0.01 µM | EC50 ([8]; read-out: EC50 (μM) ± SD): 0.07 ± 0.02 µM | CC50 [9]: 28300 ± 2800 nM

CC(C)C[C@H](NC(=O)OCCCc1ccccc1)C(=O)N[C@H](C=O)C[C@@H]1CCNC1=O [Compound 5m]
IC50 ([7]; read-out: IC50 (μM) ± SD): 0.75 ± 0.07 µM | EC50 ([8]; read-out: EC50 (μM) ± SD): 0.77 ± 0.06 µM | CC50 [9]: > 100000 nM

CC(C)C[C@H](NC(=O)OC1CCC(F)(F)CC1)C(=O)N[C@@H](C[C@@H]1CCNC1=O)C(O)S(=O)(=O)[O-].[Na+] (stereo partly drawn) [Compound 7h (Scheme 1), sodium (2S)-2-((S)-2-((((4,4-difluorocyclohexyl)oxy)carbonyl)amino)-4-methylpentan-amido)-1-hydroxy-3-((S)-2-oxopyrrolidin-3-yl)propane-1-sulfonate]
IC50 [2, 14]: 0.08 µM | IC50 [3]: 2.2 µM | EC50 values against MERS-CoV in cell culture (in words) [10]: submicromolar | EC50 [10, 16]: 0.21 µM | EC50 [4]: 0.11 µM | EC50 [5]: 0.12 µM | CC50 at 72 h [6]: > 100000 nM

CC(C)C[C@H](NC(=O)OC1(c2cccc(Cl)c2)CC1)C(=O)N[C@@H](C[C@@H]1CCNC1=O)C(O)S(=O)(=O)O (stereo partly shown) [Compound 6r]
IC50 ([7]; read-out: IC50 (μM) ± SD): 0.25 ± 0.08 µM | EC50 ([8]; read-out: EC50 (μM) ± SD): 0.55 ± 0.08 µM | CC50 [9]: > 100000 nM

CC(C)C[C@H](NC(=O)OCC(C)(C)Cc1cccc(Cl)c1)C(=O)N[C@@H](C[C@@H]1CCNC1=O)C(O)S(=O)(=O)O (stereo partly shown) [Compound 6o]
IC50 ([7]; read-out: IC50 (μM) ± SD): 0.16 ± 0.03 µM | EC50 ([8]; read-out: EC50 (μM) ± SD): 0.15 ± 0.08 µM | CC50 [9]: > 100000 nM

CC(C)C[C@H](NC(=O)OC/C=C/c1cccc(Cl)c1)C(=O)N[C@H](C=O)C[C@@H]1CCNC1=O [Compound 5t]
IC50 [7]: 0.15 ± 0.05 µM | EC50 ([8]; Norovirus, HG23, read-out: EC50 (μM) ± SD): 0.08 ± 0.01 µM | CC50 [11]: > 100000 nM

CC(C)C[C@H](NC(=O)OCCCc1cccc(Cl)c1)C(=O)N[C@H](C=O)C[C@@H]1CCNC1=O [Compound 5n]
IC50 ([7]; read-out: IC50 (μM) ± SD): 0.26 ± 0.08 µM | EC50 ([8]; read-out: EC50 (μM) ± SD): 0.16 ± 0.06 µM | CC50 [9]: > 100000 nM

CC(C)C[C@H](NC(=O)OCC(C)(C)c1cccc(Cl)c1)C(=O)N[C@H](C=O)C[C@@H]1CCNC1=O [Compound 5g (Scheme 2)]
IC50 [2, 15]: 0.08 µM | IC50 ([12]; read-out: SARS-CoV-2 IC50 (μM) enzyme): 0.3 µM | EC50 ([10]; read-out: MERS-CoV EC50 (μM) Cell culture): 0.05 µM | EC50 [13]: 0.18 µM | IC50 ([7]; read-out: IC50 (μM) ± SD): 0.27 ± 0.04 µM | EC50 ([8]; read-out: EC50 (μM) ± SD): 0.17 ± 0.05 µM | CC50 [9]: > 100000 nM

Sodium (2S)-1-hydroxy-2-((S)-4-methyl-2-(((((1s,4S)-4-propylcyclohexyl) methoxy-d2) carbonyl) amino) pentanamido)-3-(2-oxopyrrolidin-3-yl) propane-1-sulfonate [Compound 9c]
CC50 [1]: > 100000 nM

CC(C)C[C@H](NC(=O)OC1CCCCC1)C(=O)N[C@@H](C[C@@H]1CCNC1=O)C(O)S(=O)(=O)[O-].[Na+] (stereo partly drawn) [Compound 7a (Scheme 1), sodium (2S)-2-((S)-2-(((cyclohexyloxy)carbonyl)amino)-4-methylpentanamido)-1-hydroxy-3-((S)-2-oxopyrrolidin-3-yl)propane-1-sulfonate]
IC50 [2, 14]: 0.15 µM | IC50 [3]: 3.8 µM | IC50 [12]: 3.5 µM | EC50 values against MERS-CoV in cell culture (in words) [10]: submicromolar | EC50 [10, 16]: 0.08 µM | EC50 [4]: 0.08 µM | EC50 [5]: 0.07 µM | CC50 at 72 h [6]: > 100000 nM
